Structures can show the parent of a compound that is named as a salt.
How the values were obtained:
Assay type in all cases: cell-based
[1] = test system: HIV-1Ba-L (clade B); experiment: p24 antigen estimation by ELISA (level of HIV infection in HA)
Source text: Primary HA were purchased from ScienCell Research Laboratories (Carlsbad, Calif.; Cat. #1800-5) and grown in astrocyte medium purchased from ScienCell Laboratories (Cat. #1801) comprising 2% of fetal bovine serum (ScienCell Cat. #0010), astrocyte growth supplement (ScienCell Cat. #1852), and penicillin/streptomycin (ScienCell Cat. #0503). HIV-1Ba-L (clade B) (NIH AIDS Reagent Program Cat. #510) was obtained through AIDS Research and Reference Reagent Program, Division of AIDS, NIAID, NIH. The Cocaine hydrochloride-Sigma (Cat# C5776), rimcazole dihydrochloride-Tocris (1497, CAS#75859-03-9), and tenofovir disoproxil fumarate-Sigma (1643656; CAS #202138-50-9) were also obtained for this research.
Primary HA were grown in the eight-well CC plate at a concentration of approximately 8,000 cells and infected with different concentrations (ranging from 10 ng/mL to 30 ng/mL) of HIV-1 using a previously described protocol (Atluri et al. 2013; Eugenin and Berman 2007). Each well was used for a separate treatment. […]
450 μl of undiluted HA culture supernatant was mixed with 50 μL of lysing buffer. […] After incubation, 100 μL of stop solution was added to each well and the optical density of each well was read at 450 nm using a microplate reader (Yndart et al. 2015). […]

[2] = test system: human astrocytes (HA); experiment: EIS measurement of charge transfer resistance (Rct) of HA grown on IDE-Au cultureware chip
Method: A cultureware chip (CC) comprising eight wells was procured from Applied Biophysics (#8WCP PET arrays) and used to grow HA for HIV infection and subsequent drug treatments. Each well (substrate area of 0.8 cm^2 and maximum volume of 600 μL) of the CC comprised a sensing substrate configured to have gold-based IDE (IDE-Au; surface area: 3.985 mm^2). In each well and on the sensing substrate, the IDE-Au array was useful to grow a large number of cells (e.g., approximately between 4000 and 8000) and designed in such a way to perform electrochemical measurements without fluctuation.
EIS was conducted in 400 μL of 5 mM PBS (pH 7.4) comprising 5 mM Fe (II)/Fe(III) as redox moieties using VMP3, a multi-channel potentiostat/galvanostats obtained from BioLogic Instruments. Each EIS measurement was made in sets of triplet and an average was used for analytical interpretation. Before processing the CC for cell culture, EIS measurement was made on […] each well. […] The cyclic voltammetry (CV) studies were also performed on CC using identical experimental conditions to validate results obtained using EIS.
A portion of the Nyquist plot of cells grown on IDE-Au takes on a semicircle shape at higher frequency that corresponds to the electron-transfer limited process. The […] of this semicircle represents the charge transfer resistance, Rct, of the system. The semicircle is followed by a linear portion of the curve (45° to the axes) corresponding to the diffusion-controlled electron transfer process (Kaushik et al. 2010).
For a biological system, the Rct value […] intra/extracellular cell properties, such as the electrical and physical properties of the HA. As a result, Rct was selected as the parameter for the assessment of HIV infection in HA and on treatments with Coc and drugs specific to both HIV and Coc. The EIS was performed on HA as a function of HIV infection doses which varies from 10 ng/mL to 30 ng/mL (FIG. 2A (b)).
Primary HA were grown in the eight-well CC plate at a concentration of approximately 8,000 cells and infected with different concentrations (ranging from 10 ng/mL to 30 ng/mL) of HIV-1 using a previously described protocol (Atluri et al. 2013; Eugenin and Berman 2007). Each well was used for a separate treatment.
After overnight infection, unabsorbed virus was washed away using PBS (pH 7.4), and the infected cells were cultured for 5 days in the presence or absence of Coc (1 μM). RA (2 μM) was added to the designated wells (specific to Coc) 2 h before each treatment involving Coc. The optimized dose of Coc selected for this study was 1 μM, which was based on our dose response study for cytotoxicity and HIV infectivity (Roy et al. 2015).
On the 5th day, 100 μg (100 μL of 1 mg/mL) of Tef was added to wells specific to HIV and incubated for 7 days in total. The dose of Tef was selected on the basis of its toxicity and efficacy as reported in our previous publication (Jayant et al. 2015).
To evaluate variations in HIV infection as a function of the Rct value (FIGS. 3A-3D) measured using EIS, an experiment was planned in 9 wells as described in FIGS. 3A-3D.

[3] = test system: human astrocytes (HA); experiment: MTT cell viability assay; details: HA treated with Coc (1 μM), 7 days
Method: The MTT cell viability assay was examined using a modified assay method as described by Rao et al (Kurapati et al. 2012). After 7 days of HIV-infection and/or treatment with an optimum concentration of Coc (1 μM), 6-well plates were given media change with 1 mL of medium. Then, 100 μL of MTT (100 mg MTT/20 ml PBS) was added to each well and the wells were incubated for 3 h at 37° C. Further, one volume of stop mix solution was added to each well. The plates were then rocked for about 2 h and centrifuged.
The optical density of the solubilized formazan was determined spectrophotometrically measuring the absorbance at 550 nm after transferring into the 96-well plate. The optical density of formazan in each well is directly proportional to the cell viability and utilized for calculations.
Considering cell viability as a major factor, HA toxicity was evaluated in terms of cell viability as a function of levels of HIV infection ranging from 10 ng/mL to 30 ng/mL using MTT assay.

SMILES: CC(C)OC(=O)OCOP(=O)(CO[C@H](C)Cn1cnc2c(N)ncnc21)OCOC(=O)OC(C)C.O=C(O)/C=C/C(=O)O [Tef, tenofovir disoproxil fumarate]
- level of HIV infection (p24 antigen) ([1]; HIV-infected HA treated with Tef (100 μg) vs HIV-infected cells alone): significant reduction
- Rct ([2]; HA+HIV+Coc+Tef): 93 KS
- Rct ([2]; HIV-infected HA (20 ng/mL) after Tef, HA+HIV without drug 210): 150 KΩ

SMILES: COC(=O)[C@H]1[C@@H](OC(=O)c2ccccc2)C[C@@H]2CC[C@H]1N2C [Coc, cocaine]
- cell viability [3]: ~85%
- Rct ([2]; HA+Coc (1 μM), normal HA 48): 21 KS
- Rct ([2]; HA+HIV+Coc): 140 KS

SMILES: C[C@@H]1CN(CCCn2c3ccccc3c3ccccc32)C[C@H](C)N1 [RA, rimcazole dihydrochloride]
- level of HIV infection (p24 antigen) ([1]; HIV-infected HA with Coc and RA (2 μM) vs cells treated with HIV and Coc alone): not statistically significant
- Rct ([2]; HA+Coc+RA (2 μM)): 34 KΩ
- Rct ([2]; HA+HIV+Coc+RA): 105 KΩ
